“Also recorded” adds a separate entry of the source.
What was measured:
rats = conditions: acute icy infusion of oxytocin; cited from earlier work
[1] = tested on: Patients recently diagnosed with OSA; assay: Intranasal oxytocin in patients recently diagnosed with OSA (polysomnography, sleep quality score); type: in vivo, human; conditions: 40 IU oxytocin intranasally about one hour prior to sleeping
Protocol: Patients recently diagnosed with OSA were recruited to test the effect of oxytocin administration on heart rate, apnea-hypopnea index, oxygen saturation, apnea duration, arousal index etc. The study is approved by the FDA (IND #120989). Patients were administered 40 IU of oxytocin intranasally about one hour prior to sleeping.
The following eight outcomes were compared in the same patients prior to and after administration with oxytocin: • basal heart rate before sleep (primary outcome) • mean changes in heart rate with apneic and hypopneic events (primary outcome) • apnea-hypopnea index (secondary outcome) • percentage of time spent by the patient with oxygen saturations: >90%, >80% but <90%, and <80% (secondary outcome) • duration of apneas • oxygen desaturation during apneas (expressed as adverse desaturations in percent oxygen) • numbers of arousals (expressed per hour) • sleep quality
The following information was recorded for each patient before and after the use of intranasal oxytocin:
• a. Basal heart rate before sleep • b. Apnea-hypopnea index • c. Mean changes in heart rate with apneic and hypopneic events • d. Percentage of time spent by the patient with oxygen saturations: >90%, >80% but <90%, and <80%. • e. Duration of apneas • f. Oxygen desaturation during apneas (expressed as adverse desaturations in percent oxygen) • g. Numbers of arousals (expressed per hour) • h. Sleep quality 3. Standard of care sleep study data using PSG: Polysomnography (PSG) monitors many body functions during sleep, including brain (EEG), eye movements (EOG), muscle activity or skeletal muscle activation (EMG), heart rhythm (ECG), respiratory airflow, thoracic and abdominal respiratory effort, body position, limb movement, and oxygen saturation using pulse oximetry. Recording and scoring was done according to the standards set by the American Academy of Sleep Medicine. 4. Sleep quality score: Patients were asked to rank their responses using the scale of 1-5 for a set of empirical factors: • 1—Strongly disagree • 2—Slightly disagree • 3—Neither agree nor disagree • 4—Slightly agree • 5—Strongly agree Empirical Factors: • I feel more refreshed than usual this morning • My quality of sleep last night was better than usual • I slept deeper than usual last night • I woke up fewer times than usual last night • I slept longer than usual last night • I feel better overall than usual this morning

[2] = same patients prior to and after administration

CC[C@H](C)[C@@H]1NC(=O)[C@H](Cc2ccc(O)cc2)NC(=O)[C@@H](N)CSSC[C@@H](C(=O)N2CCC[C@H]2C(=O)N[C@@H](CC(C)C)C(=O)NCC(N)=O)NC(=O)[C@H](CC(N)=O)NC(=O)[C@H](CCC(N)=O)NC1=O [oxytocin]
high-frequency activity in the electroencephalogram (EEG) within non-REMS (rats): augmented
non-REMS and REMS (rats): transient reduction
sleep onset latency (rats): delayed
duration of apnea [1, 2]: reduces
number of arousals/hour [1, 2]: decreases; also recorded: reduces
oxygen desaturation [1, 2]: reduces
sleep quality or sleep satisfaction ([1]; score on scale of 1-5 for empirical factors): improves
